Data as given in publication PMC6364417, “Kinase inhibitor library screening identifies synergistic drug combinations effective in sensitive and resistant melanoma cells” (Journal of Experimental & Clinical Cancer Research : CR, 2019).

Assays:
Assay in all cases: Kinase inhibitor library screening, PrestoBlue cell viability, 1 or 10 μM, 72 h
[1] = tested on: 501Mel-XP cells (Vemurafenib-resistant); conditions: for cell viability (kinase inhibitor library screening): 501Mel XP
[2] = tested on: IGR37-GP cells (Dabrafenib-resistant); conditions: for cell viability (kinase inhibitor library screening): IGR37 GP
IGR37 cells (parental) = conditions: for cell viability (kinase inhibitor library screening): IGR37 Parental
[3] = tested on: A375-GP cells (Dabrafenib-resistant); conditions: for cell viability (kinase inhibitor library screening): A375 GP
A375 cells (parental) = conditions: for cell viability (kinase inhibitor library screening): A375 Parental
501Mel cells (parental) = conditions: for cell viability (kinase inhibitor library screening): 501Mel Parental
Procedure, shortened: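 Single-point screen at two doses over three days. Parental and BRAF-inhibitor-resistant sublines (XP: Vemurafenib; GP: Dabrafenib) were assessed by PrestoBlue viability, reported relative to untreated cells.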

[4] = tested on: 501Mel-GP cells (Dabrafenib-resistant); conditions: for cell viability (kinase inhibitor library screening): 501Mel GP
[5] = tested on: IGR37-XP cells (Vemurafenib-resistant); conditions: for cell viability (kinase inhibitor library screening): IGR37 XP
[6] = tested on: A375-XP cells (Vemurafenib-resistant); conditions: for cell viability (kinase inhibitor library screening): A375 XP

In the case of `Oc1c2ccccc2c2c3c(cccc13)N=N2` [SP600125], the viability at 1 µM ([1]; Homo sapiens, 72 h, read-out: cell viability, 501Mel XP, 1μΜ) is reported as 94.3%, the viability at 10 µM ([1]; Homo sapiens, 72 h, read-out: cell viability, 501Mel XP, 10μΜ) is reported as 54.5% and the viability at 1 µM ([2]; Homo sapiens, IGR-37, 72 h, read-out: cell viability, IGR37 GP, 1μΜ) is reported as 92.5%. The viability at 10 µM ([2]; Homo sapiens, IGR-37, 72 h, read-out: cell viability, IGR37 GP, 10μΜ) was 74.4%, the viability at 1 µM (IGR37 cells (parental); Homo sapiens, IGR-37, 72 h, read-out: cell viability, IGR37 Parental, 1μΜ) was 98.4% and the viability at 10 µM (IGR37 cells (parental); Homo sapiens, IGR-37, 72 h, read-out: cell viability, IGR37 Parental, 10μΜ) was 70.6%. The viability at 1 µM ([3]; Homo sapiens, A-375, 72 h, read-out: cell viability, A375 GP, 1μΜ) was 98.3%, the viability at 10 µM ([3]; Homo sapiens, A-375, 72 h, read-out: cell viability, A375 GP, 10μΜ) was 83.9% and the viability at 1 µM (A375 cells (parental); Homo sapiens, A-375, 72 h, read-out: cell viability, A375 Parental, 1μΜ) was 102%. For the same compound, the viability at 10 µM (A375 cells (parental); Homo sapiens, A-375, 72 h, read-out: cell viability, A375 Parental, 10μΜ) was 79.2%, the viability at 1 µM (501Mel cells (parental); Homo sapiens, 72 h, read-out: cell viability, 501Mel Parental, 1μΜ) was 107% and the viability at 10 µM (501Mel cells (parental); Homo sapiens, 72 h, read-out: cell viability, 501Mel Parental, 10μΜ) was 75.1%. For the same compound, the viability at 1 µM ([4]; Homo sapiens, 72 h, read-out: cell viability, 501Mel GP, 1μΜ) was 95.4%, the viability at 10 µM ([4]; Homo sapiens, 72 h, read-out: cell viability, 501Mel GP, 10μΜ) was 66.8% and the viability at 1 µM ([5]; Homo sapiens, IGR-37, 72 h, read-out: cell viability, IGR37 XP, 1μΜ) was 96.5%. It also gave a viability at 10 µM ([5]; Homo sapiens, IGR-37, 72 h, read-out: cell viability, IGR37 XP, 10μΜ) of 45.8%, a viability at 1 µM ([6]; Homo sapiens, A-375, 72 h, read-out: cell viability, A375 XP, 1μΜ) of 103% and a viability at 10 µM ([6]; Homo sapiens, A-375, 72 h, read-out: cell viability, A375 XP, 10μΜ) of 91.5%.

`Cc1[nH]c(/C=C2\C(=O)Nc3ccc(S(=O)(=O)N(C)c4cccc(Cl)c4)cc32)c(C)c1C(=O)N1CCN(C)CC1` [SU11274] was tested, and the “cell viability (kinase inhibitor library screening)” value ([1]; 1μΜ, 72 h) was 92.2%, the “cell viability (kinase inhibitor library screening)” value ([1]; 10μΜ, 72 h) was 0.0577% and the “cell viability (kinase inhibitor library screening)” value ([2]; 1μΜ, 72 h) was 103.1%. The “cell viability (kinase inhibitor library screening)” value ([2]; 10μΜ, 72 h) was 37.8%, the “cell viability (kinase inhibitor library screening)” value (IGR37 cells (parental); 1μΜ, 72 h) was 117.2% and the “cell viability (kinase inhibitor library screening)” value (IGR37 cells (parental); 10μΜ, 72 h) was 13.1%. For the same compound, the “cell viability (kinase inhibitor library screening)” value ([3]; 1μΜ, 72 h) was 104.3%, the “cell viability (kinase inhibitor library screening)” value ([3]; 10μΜ, 72 h) was 46.3% and the “cell viability (kinase inhibitor library screening)” value (A375 cells (parental); 10μΜ, 72 h) was 65.8%. For the same compound, the “cell viability (kinase inhibitor library screening)” value (A375 cells (parental); 1μΜ, 72 h) was 112.5%, the “cell viability (kinase inhibitor library screening)” value (501Mel cells (parental); 1μΜ, 72 h) was 107.1% and the “cell viability (kinase inhibitor library screening)” value (501Mel cells (parental); 10μΜ, 72 h) was 12.1%. For the same compound, the “cell viability (kinase inhibitor library screening)” value ([4]; 1μΜ, 72 h) was 111.1%, the “cell viability (kinase inhibitor library screening)” value ([4]; 10μΜ, 72 h) was 33.6% and the “cell viability (kinase inhibitor library screening)” value ([5]; 1μΜ, 72 h) was 105.9%. The “cell viability (kinase inhibitor library screening)” value ([5]; 10μΜ, 72 h) was 19.7%, the “cell viability (kinase inhibitor library screening)” value ([6]; 1μΜ, 72 h) was 111.1% and the “cell viability (kinase inhibitor library screening)” value ([6]; 10μΜ, 72 h) was 22.4%.

With `CN1CCN(CCOc2cc(OC3CCOCC3)c3c(Nc4c(Cl)ccc5c4OCO5)ncnc3c2)CC1` [Saracatinib (AZD0530)] the “cell viability (kinase inhibitor library screening)” value ([1]; 1μΜ, in %) was 95.7, the “cell viability (kinase inhibitor library screening)” value ([1]; 10μΜ, in %) was 79.4 and the “cell viability (kinase inhibitor library screening)” value ([2]; 1μΜ, in %) was 96.8. The “cell viability (kinase inhibitor library screening)” value ([2]; 10μΜ, in %) was 77.9, the “cell viability (kinase inhibitor library screening)” value (IGR37 cells (parental); 10μΜ, in %) was 96.3 and the “cell viability (kinase inhibitor library screening)” value ([3]; 1μΜ, in %) was 81.5. For the same compound, the “cell viability (kinase inhibitor library screening)” value ([3]; 10μΜ, in %) was 56.9, the “cell viability (kinase inhibitor library screening)” value (A375 cells (parental); 1μΜ, in %) was 92.2 and the “cell viability (kinase inhibitor library screening)” value (A375 cells (parental); 10μΜ, in %) was 71.5. For the same compound, the “cell viability (kinase inhibitor library screening)” value (501Mel cells (parental); 1μΜ, in %) was 105.0, the “cell viability (kinase inhibitor library screening)” value ([4]; 1μΜ, in %) was 100.5 and the “cell viability (kinase inhibitor library screening)” value ([4]; 10μΜ, in %) was 90.5. The “cell viability (kinase inhibitor library screening)” value ([5]; 1μΜ, in %) was 97.3, the “cell viability (kinase inhibitor library screening)” value ([5]; 10μΜ, in %) was 61.7 and the “cell viability (kinase inhibitor library screening)” value ([6]; 1μΜ, in %) was 92.8. For the same compound, the “cell viability (kinase inhibitor library screening)” value ([6]; 10μΜ, in %) was 71.3.

With `Cc1cc(C)c(/C=C2\C(=O)Nc3ccccc32)[nH]1` [Semaxanib (SU5416)] the “cell viability (kinase inhibitor library screening)” value ([1]; 1μΜ, in %) was 89.0, the “cell viability (kinase inhibitor library screening)” value ([1]; 10μΜ, in %) was 70.1 and the “cell viability (kinase inhibitor library screening)” value ([2]; 1μΜ, in %) was 92.4. For the same compound, the “cell viability (kinase inhibitor library screening)” value ([2]; 10μΜ, in %) was 88.3, the “cell viability (kinase inhibitor library screening)” value (IGR37 cells (parental); 1μΜ, in %) was 100.1 and the “cell viability (kinase inhibitor library screening)” value (IGR37 cells (parental); 10μΜ, in %) was 97.0. For the same compound, the “cell viability (kinase inhibitor library screening)” value ([3]; 1μΜ, in %) was 106.4, the “cell viability (kinase inhibitor library screening)” value ([3]; 10μΜ, in %) was 85.4 and the “cell viability (kinase inhibitor library screening)” value (A375 cells (parental); 1μΜ, in %) was 104.2. For the same compound, the “cell viability (kinase inhibitor library screening)” value (A375 cells (parental); 10μΜ, in %) was 98.1, the “cell viability (kinase inhibitor library screening)” value (501Mel cells (parental); 1μΜ, in %) was 100.0 and the “cell viability (kinase inhibitor library screening)” value (501Mel cells (parental); 10μΜ, in %) was 90.0. For the same compound, the “cell viability (kinase inhibitor library screening)” value ([4]; 1μΜ, in %) was 104.6, the “cell viability (kinase inhibitor library screening)” value ([4]; 10μΜ, in %) was 82.4 and the “cell viability (kinase inhibitor library screening)” value ([5]; 1μΜ, in %) was 100.1. The “cell viability (kinase inhibitor library screening)” value ([5]; 10μΜ, in %) was 61.3 and the “cell viability (kinase inhibitor library screening)” value ([6]; 10μΜ, in %) was 97.5.
